Source: ChEMBL document CHEMBL3853267 (Medchemcomm, 2016)

Legend:
[1] = Activity at NET in rat synaptosomes obtained from whole brain minus striatum and cerebellum assessed as release of [3H]MPP+ by liquid scintillation counting method; assay type: subcellular
[2] = target: T1, 5-hydroxytryptamine receptor 2A (Homo sapiens, UniProt P28223); experiment: Agonist activity at human 5-HT2A receptor expressed in HEK293 cells assessed as induction of calcium mobilization incubated for 15 mins by calcium 5 dye-based fluorescence assay; assay type: cell-based
Rattus norvegicus [3] = organism: Rattus norvegicus; experiment: Selectivity ratio of EC50 for DAT in rat synaptosomes to EC50 for SERT in rat synaptosomes; assay type: subcellular
Rattus norvegicus [4] = organism: Rattus norvegicus; experiment: Selectivity ratio of EC50 for DAT in rat synaptosomes to EC50 for NET in rat synaptosomes; assay type: subcellular
[5] = target: Sodium-dependent serotonin transporter (Rattus norvegicus, UniProt P31652); experiment: Activity at SERT in rat synaptosomes obtained from whole brain minus striatum and cerebellum assessed as release of [3H]5-HT by liquid scintillation counting method; assay type: subcellular
Rattus norvegicus [6] = organism: Rattus norvegicus; experiment: Selectivity ratio of EC50 for NET in rat synaptosomes to EC50 for SERT in rat synaptosomes; assay type: subcellular
[7] = target: T1, 5-hydroxytryptamine receptor 2A; experiment: Agonist activity at human 5-HT2A receptor expressed in HEK293 cells by [3H]-inositol phosphate accumulation assay; assay type: cell-based
[8] = target: 5-hydroxytryptamine receptor 2B (Homo sapiens, UniProt P41595); experiment: Agonist activity at human 5-HT2B receptor expressed in HEK293 cells by [3H]-inositol phosphate accumulation assay; assay type: cell-based
[9] = target: T2, 5-hydroxytryptamine receptor 2C (Homo sapiens, UniProt P28335); experiment: Agonist activity at human 5-HT2C receptor expressed in HEK293 cells by [3H]-inositol phosphate accumulation assay; assay type: functional, cell-based
T2 sequence (P28335 whole entry): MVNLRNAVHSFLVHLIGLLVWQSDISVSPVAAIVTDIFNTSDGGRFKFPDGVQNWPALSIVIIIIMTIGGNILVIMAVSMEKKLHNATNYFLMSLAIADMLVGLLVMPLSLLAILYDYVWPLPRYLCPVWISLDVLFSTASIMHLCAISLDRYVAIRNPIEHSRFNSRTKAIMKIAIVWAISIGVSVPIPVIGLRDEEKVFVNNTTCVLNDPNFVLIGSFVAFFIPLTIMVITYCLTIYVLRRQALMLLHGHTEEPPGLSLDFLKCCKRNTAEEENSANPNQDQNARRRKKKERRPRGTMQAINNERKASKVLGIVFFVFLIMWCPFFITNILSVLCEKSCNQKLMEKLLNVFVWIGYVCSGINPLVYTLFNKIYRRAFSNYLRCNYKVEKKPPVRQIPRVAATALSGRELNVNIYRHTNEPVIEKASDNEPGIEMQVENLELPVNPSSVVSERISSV

[10] = target: T3, 5-hydroxytryptamine receptor 2C (Homo sapiens) (UniProt P28335); experiment: Agonist activity at human 5-HT2C receptor expressed in HEK293 cells by [3H]-inositol phosphate accumulation assay relative to 5-HT; assay type: functional, cell-based
T3 sequence (whole entry): T2 sequence (P28335 whole entry)

Rattus norvegicus [11] = organism: Rattus norvegicus; experiment: Selectivity ratio of EC50 for NET in rat synaptosomes to EC50 for DAT in rat synaptosomes; assay type: subcellular
[12] = target: T2, 5-hydroxytryptamine receptor 2C; experiment: Agonist activity at human 5-HT2C receptor expressed in HEK293 cells assessed as induction of calcium mobilization incubated for 15 mins by calcium 5 dye-based fluorescence assay; assay type: functional, cell-based

T1 sequence (P28223 whole entry): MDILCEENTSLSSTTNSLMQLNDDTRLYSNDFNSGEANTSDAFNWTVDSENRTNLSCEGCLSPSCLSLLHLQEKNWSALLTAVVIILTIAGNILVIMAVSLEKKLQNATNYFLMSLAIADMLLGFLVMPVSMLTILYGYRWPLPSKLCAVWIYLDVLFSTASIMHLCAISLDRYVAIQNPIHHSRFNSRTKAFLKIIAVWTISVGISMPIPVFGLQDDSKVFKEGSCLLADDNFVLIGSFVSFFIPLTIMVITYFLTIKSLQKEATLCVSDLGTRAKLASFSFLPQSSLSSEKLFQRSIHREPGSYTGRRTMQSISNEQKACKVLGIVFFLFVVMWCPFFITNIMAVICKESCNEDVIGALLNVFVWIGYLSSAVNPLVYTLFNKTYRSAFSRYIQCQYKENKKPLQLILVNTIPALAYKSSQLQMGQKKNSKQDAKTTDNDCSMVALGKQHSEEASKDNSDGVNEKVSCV
Chain of Sodium-dependent serotonin transporter (P31652 whole entry): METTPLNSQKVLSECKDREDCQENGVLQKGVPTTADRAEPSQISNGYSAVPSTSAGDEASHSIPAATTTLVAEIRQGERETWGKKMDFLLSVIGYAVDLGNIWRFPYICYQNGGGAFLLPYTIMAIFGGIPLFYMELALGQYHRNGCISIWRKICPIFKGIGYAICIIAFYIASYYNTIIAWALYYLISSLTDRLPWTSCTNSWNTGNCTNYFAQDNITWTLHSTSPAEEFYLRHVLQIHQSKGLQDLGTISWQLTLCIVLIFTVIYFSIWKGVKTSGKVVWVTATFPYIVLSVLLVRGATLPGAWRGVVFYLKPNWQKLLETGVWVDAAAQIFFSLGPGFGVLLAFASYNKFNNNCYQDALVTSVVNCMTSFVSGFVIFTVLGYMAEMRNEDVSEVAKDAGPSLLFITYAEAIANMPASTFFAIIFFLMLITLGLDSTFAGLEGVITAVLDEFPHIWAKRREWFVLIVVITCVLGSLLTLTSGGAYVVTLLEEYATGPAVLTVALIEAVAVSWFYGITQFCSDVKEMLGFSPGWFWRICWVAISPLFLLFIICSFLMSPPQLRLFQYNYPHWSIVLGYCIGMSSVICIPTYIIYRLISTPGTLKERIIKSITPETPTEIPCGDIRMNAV
Chain of 5-hydroxytryptamine receptor 2B (P41595 whole entry): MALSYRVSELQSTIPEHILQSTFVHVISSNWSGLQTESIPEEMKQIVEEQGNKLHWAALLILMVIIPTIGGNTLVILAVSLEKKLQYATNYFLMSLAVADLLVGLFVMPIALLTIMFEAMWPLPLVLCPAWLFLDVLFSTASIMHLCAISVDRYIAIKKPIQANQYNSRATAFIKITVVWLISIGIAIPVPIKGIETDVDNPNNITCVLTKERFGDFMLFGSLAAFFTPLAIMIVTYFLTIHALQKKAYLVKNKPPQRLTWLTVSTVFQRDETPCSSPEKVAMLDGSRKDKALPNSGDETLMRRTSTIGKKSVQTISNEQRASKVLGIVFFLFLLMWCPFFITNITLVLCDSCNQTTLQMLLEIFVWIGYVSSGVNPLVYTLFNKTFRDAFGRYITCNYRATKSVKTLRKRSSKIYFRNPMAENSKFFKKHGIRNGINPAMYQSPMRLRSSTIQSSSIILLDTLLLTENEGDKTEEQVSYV

Row | SMILES | EC50 [1] | Ratio EC50 (Rattus norvegicus [3]) | further results
1 | C[C@@H](N)C/C=C/c1ccccc1 | 279 nM | 5 | EC50 [2]: > 10000 nM
2 | CC(N)C/C=C\c1ccccc1 (racemic) | 621 nM | 1.4 | 
3 | C[C@@H](N)CC#Cc1ccccc1 | 496 nM | 2.3 | EC50 [2]: > 10000 nM
4 | C[C@@H](N)C/C=C\c1ccccc1 | 211 nM | 1.2 | Ratio EC50 (Rattus norvegicus [4]): 6.7
5 | CC(N)/C=C/c1ccccc1 (stereo not drawn) | 308 nM |  | EC50 [5]: > 10000 nM; Ratio EC50 (Rattus norvegicus [4]): 2.2
6 | CC(N)/C=C\c1ccccc1 (stereo not drawn) | 301 nM |  | EC50 [5]: > 10000 nM; Ratio EC50 (Rattus norvegicus [4]): 3.7
7 | C[C@H](N)CC#Cc1ccccc1 | 784 nM |  | 
8 | C[C@H](N)C/C=C/c1ccccc1 | 138 nM | 5 | Ratio EC50 (Rattus norvegicus [6]): 3.5
9 | CC(N)C/C=C/c1ccccc1 (racemic) | 239 nM | 5 | 
10 | CC(N)Cc1ccc2ccccc2c1 (stereo not drawn) |  |  | EC50 [7]: 466 nM; EC50 [8]: 40 nM; EC50 [9]: 2.3 nM; Emax [10]: 20%
11 | CC(N)CC#Cc1ccccc1 (racemic) | 2980 nM | 2.6 | Ratio EC50 (Rattus norvegicus [11]): 3
12 | C[C@H](N)C/C=C\c1ccccc1 | 170 nM |  | EC50 [5]: 663 nM; EC50 [12]: > 10000 nM
